Data: US20210130473A1, “TGFßR1 INHIBITOR-ASGR ANTIBODY CONJUGATES AND USES THEREOF” (Silverback Therapeutics, Inc., priority 2019, published 2021)

Columns and labels:
ALK5 = molecular target: T1, ALK5 (Homo sapiens, UniProt P36897); experiment: ALK5 enzyme inhibition assay (casein substrate, 10 uM ATP, 33P-ATP, filter-binding; Reaction Biology Corp); type: biochemical
T1 construct: purchased Reaction Biology Corp (Malvern, Pa.)
T1 sequence (P36897 34-503): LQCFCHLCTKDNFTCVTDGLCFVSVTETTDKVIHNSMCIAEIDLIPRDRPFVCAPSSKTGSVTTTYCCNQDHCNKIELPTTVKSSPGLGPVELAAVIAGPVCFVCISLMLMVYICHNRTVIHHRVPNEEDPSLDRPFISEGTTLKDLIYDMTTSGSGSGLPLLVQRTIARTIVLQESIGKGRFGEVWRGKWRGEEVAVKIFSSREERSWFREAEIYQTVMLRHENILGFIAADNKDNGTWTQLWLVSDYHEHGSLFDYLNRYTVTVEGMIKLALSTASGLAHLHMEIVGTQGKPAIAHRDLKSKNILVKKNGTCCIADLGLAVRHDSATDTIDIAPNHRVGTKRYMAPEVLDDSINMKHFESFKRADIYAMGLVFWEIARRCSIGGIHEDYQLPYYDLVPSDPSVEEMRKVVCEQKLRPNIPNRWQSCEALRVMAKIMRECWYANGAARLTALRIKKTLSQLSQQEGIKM
Protocol: ALK5 enzyme inhibition assays were performed by Reaction Biology Corp (Malvern, Pa.). 1 mg/mL of peptide substrate (casein) and 10 uM ATP were prepared in a mixture of fresh reaction buffer. The kinase was delivered into the substrate solution which was gently mixed. Compounds in 100% DMSO were added to the kinase reaction mixture by Acoustic technology (Echo550; nanoliter range) and the mixture was incubated for 20 min at room temperature. ^33P-ATP (Specific activity 10 uCi/uL) was added into the reaction mixture to initiate the reaction and the reaction mixture was incubated for 2 hours at room temperature. Radioactivity was detected by filter-binding method and kinase activity data were expressed as the percent remaining kinase activity in test samples compared to vehicle (dimethyl sulfoxide) reactions. IC50 values and curve fits were obtained using Prism (GraphPad Software).

[1] = tested on: TGFβ/SMAD Signaling Pathway SBE reporter cell line; experiment: TGFb reporter assay in HEK293 SBE-LUC reporter cells (luciferase); type: cell-based; conditions: Homo sapiens, key of the table says IC50, read-out: EC50 (the source's name)
Protocol: TGFβ/SMAD Signaling Pathway SBE reporter cell line was obtained from BPS Bioscience. Cells are passed, expanded, and stored in liquid nitrogen as per the supplier's instructions with the exception that growth media is changed to DMEM-C with Geneticin (DMEM supplemented with 10% fetal bovine serum, 1×NEAA, 1 mM Pyruvate, 2 mM glutamine, 50 μg/mL penicillin, 50 U/mL streptomycin and 400 μg/mL of Geneticin). The assay media is MEM supplemented with 0.5% fetal bovine serum, 1×NEAA, 1 mM Pyruvate, 50 μg/mL penicillin and 50 U/mL streptomycin.
Compounds are assayed to measure their activity as ALK5 inhibitors.
The HEK293 SBE-LUC reporter cells from Example 15 were grown in DMEM-C with Geneticin (DMEM supplemented with […], 1×NEAA, 1 mM Pyruvate, 2 mM glutamine, 50 μg/mL penicillin, 50 U/mL streptomycin and 400 ug/mL of Geneticin). The assay media was MEM supplemented with 0.5% fetal bovine serum, 1×NEAA, 1 mM Pyruvate, 50 μg/mL penicillin and 50 U/mL streptomycin.
The HEK293 SBE-LUC reporter cells were harvested from the tissue culture flasks by incubation in small quantity of Versene at room temperature for three to five minutes after the media in the flask is removed and cells rinsed with PBS. Cells were counted and diluted in the assay media at ˜0.8×10^6 cells/mL then 50 uL/well were added to 96-well assay plate. Test samples (at desired concentrations diluted in assay media) were added to assay plate containing the 50 uL/well of cells (or media only), 50 uL per well, and incubated for 5-6 hours at 37° C. in a 5% CO2 humidified incubator. After that time, 15 uL of TGFb diluted to 12.5 ng/mL in the assay media was added to the plate. Controls included TGFb titration (from 25 to 0 ng/mL) without inhibitors, and media only (without cells, inhibitor or TGFb). Plates were incubated at 37° C. in a 5% CO2 humidified incubator for 18h. Luciferase substrate solution was subsequently added at 75 uL per well, incubated in dark with shaking at room temperature for 10 min, and luminescence was measured using a luminometer.

SMILES	IC50 (ALK5; Table 12) [nM]	IC50 [1] [nM]	IC50 (ALK5; Table 11) [nM]
Cc1cccc(-c2nc(CNc3cccc4c3CC(N)C4)[nH]c2-c2ccc3ncnn3c2)n1 (stereo not shown) [Compound 1.22]	1000 to 10000	100 to 1000	–
CC(=O)NC1Cc2cccc(NCc3nc(-c4cccc(C)n4)c(-c4ccc5ncnn5c4)[nH]3)c2C1 (stereo not shown) [Compound 1.23]	10 to 100	100 to 1000	–
Cc1cccc(-c2nc(CNc3ccc4c(c3)CC(N)C4)[nH]c2-c2ccc3ncnn3c2)n1 (stereo not shown) [Compound 1.24]	100 to 1000	100 to 1000	–
Cc1cccc(-c2nc(CN[C@@H]3CCc4ccccc43)[nH]c2-c2ccn3ncnc3c2)n1 [Compound 1.30]	100 to 1000	10 to 100	–
Cc1cccc(-c2nc(CNc3cccc4c3CNC4)[nH]c2-c2ccn3ncnc3c2)n1 [Compound 1.31]	100 to 1000	100 to 1000	–
Cc1cccc(-c2nc(CN[C@H]3CCCC[C@@H]3F)[nH]c2-c2ccn3ncnc3c2)n1 [Compound 1.32]	10 to 100	100 to 1000	–
Cc1cccc(-c2nc(CN[C@H]3CCCC[C@H]3F)[nH]c2-c2ccn3ncnc3c2)n1 [Compound 1.33]	100 to 1000	100 to 1000	–
Cc1cccc(-c2nc(CN[C@H]3CCc4ccccc43)[nH]c2-c2ccn3ncnc3c2)n1 [Compound 1.34]	100 to 1000	100 to 1000	–
Cc1cccc(-c2nc(C3CCCNC3)[nH]c2-c2ccc3ncnn3c2)n1 (stereo not shown) [Compound 1.48]	1000 to 10000	100 to 1000	–
Cc1cccc(-c2nc(C3CCN(C(=O)OC(C)(C)C)C3)[nH]c2-c2ccc3ncnn3c2)n1 (stereo not shown) [Compound 1.51]	1000 to 10000	100 to 1000	–
Cc1cccc(-c2nc(C3CN(C(=O)OC(C)(C)C)C3)[nH]c2-c2ccc3ncnn3c2)n1 [Compound 1.52]	1000 to 10000	100 to 1000	–
Cc1cccc(-c2nc(C34CCC(N)(CC3)CC4)[nH]c2-c2ccc3ncnn3c2)n1 [Compound 1.55]	1000 to 10000	1000 to 10000	–
Cc1cccc(-c2nc(CNCc3cccc(Cl)c3)[nH]c2-c2ccc3ncnn3c2)n1 [Compound 2]	–	10 to 100	100 to 1000
Cc1cccc(-c2nc(CNCc3ccc(Cl)cc3)[nH]c2-c2ccc3ncnn3c2)n1 [Compound 3]	–	10 to 100	1000 to 10000
Cc1cccc(-c2nc(CNCc3ccc(Cl)c(Cl)c3)[nH]c2-c2ccc3ncnn3c2)n1 [Compound 4]	–	100 to 1000	100 to 1000
Cc1cccc(-c2nc(CNCc3cc(Cl)ccc3Cl)[nH]c2-c2ccc3ncnn3c2)n1 [Compound 5]	–	10 to 100	50 to 100
Cc1cccc(-c2nc(CNCc3c(Cl)cccc3Cl)[nH]c2-c2ccc3ncnn3c2)n1 [Compound 6]	–	0.1 to 10	0.1 to 50
COc1cccc(CNCc2nc(-c3cccc(C)n3)c(-c3ccc4ncnn4c3)[nH]2)c1 [Compound 7]	–	0.1 to 10	100 to 1000
COc1ccc(CNCc2nc(-c3cccc(C)n3)c(-c3ccc4ncnn4c3)[nH]2)cc1 [Compound 8]	–	100 to 1000	1000 to 10000
COc1ccc(OC)c(CNCc2nc(-c3cccc(C)n3)c(-c3ccc4ncnn4c3)[nH]2)c1 [Compound 9]	–	10 to 100	100 to 1000
Cc1cccc(-c2nc(CNCc3ccccc3Cl)[nH]c2-c2ccn3ncnc3c2)n1 [Compound 10]	–	0.1 to 10	0.1 to 50
Cc1cccc(-c2nc(CN[C@H](C)c3ccccc3)[nH]c2-c2ccc3ncnn3c2)n1 [Compound 11]	–	10 to 100	100 to 1000
Cc1cccc(-c2nc(CN[C@@H](C)c3ccccc3)[nH]c2-c2ccc3ncnn3c2)n1 [Compound 12]	–	100 to 1000	1000 to 10000
Cc1cccc(-c2nc(CNC(c3ccccc3)c3ccccc3)[nH]c2-c2ccc3ncnn3c2)n1 [Compound 13]	–	0.1 to 10	50 to 100

SMILES	IC50 (ALK5; Table 12) [nM]	IC50 [1] [nM]	IC50 (ALK5; Table 11) [nM]
Cc1cccc(-c2nc(CN[C@@H](CO)c3ccccc3)[nH]c2-c2ccc3ncnn3c2)n1 [Compound 14]	–	10 to 100	50 to 100
COC(=O)[C@H](NCc1nc(-c2cccc(C)n2)c(-c2ccc3ncnn3c2)[nH]1)c1ccccc1 [Compound 15]	–	100 to 1000	50 to 100
COC(=O)[C@@H](NCc1nc(-c2cccc(C)n2)c(-c2ccc3ncnn3c2)[nH]1)c1ccccc1 [Compound 16]	–	100 to 1000	0.1 to 50
COc1ccccc1CNCc1nc(-c2cccc(C)n2)c(-c2ccc3ncnn3c2)[nH]1 [Compound 17]	–	10 to 100	50 to 100
Cc1cccc(-c2nc(CNCc3ccccc3F)[nH]c2-c2ccc3ncnn3c2)n1 [Compound 18]	–	0.1 to 10	0.1 to 50
Cc1cccc(-c2nc(CNCc3ccccc3C#N)[nH]c2-c2ccc3ncnn3c2)n1 [Compound 20]	–	100 to 1000	1000 to 10000
Cc1cccc(-c2nc(CNCc3ccccc3C)[nH]c2-c2ccc3ncnn3c2)n1 [Compound 21]	–	0.1 to 10	0.1 to 50
CCc1ccccc1CNCc1nc(-c2cccc(C)n2)c(-c2ccc3ncnn3c2)[nH]1 [Compound 22]	–	0.1 to 10	0.1 to 50
Cc1cccc(-c2nc(CNCc3ccccc3C(C)C)[nH]c2-c2ccc3ncnn3c2)n1 [Compound 23]	–	0.1 to 10	50 to 100
Cc1cccc(-c2nc(CNCc3ccccc3-c3ccccc3)[nH]c2-c2ccc3ncnn3c2)n1 [Compound 24]	–	0.1 to 10	0.1 to 50
Cc1cccc(-c2nc(CNCc3ccccc3N(C)C)[nH]c2-c2ccc3ncnn3c2)n1 [Compound 25]	–	0.1 to 10	100 to 1000
Cc1cccc(-c2nc(CNCc3ccccc3OC(F)(F)F)[nH]c2-c2ccc3ncnn3c2)n1 [Compound 26]	–	0.1 to 10	0.1 to 50
Cc1cccc(-c2nc(CNCc3ccccc3CC(F)(F)F)[nH]c2-c2ccc3ncnn3c2)n1 [Compound 27]	–	0.1 to 10	50 to 100
Cc1cccc(-c2nc(CNCc3ccccc3C(O)C(F)(F)F)[nH]c2-c2ccc3ncnn3c2)n1 (stereo not shown) [Compound 28]	–	0.1 to 10	0.1 to 50
Cc1cccc(-c2nc(CNCc3ccccc3-c3ccccc3CNC(=O)OC(C)(C)C)[nH]c2-c2ccc3ncnn3c2)n1 [Compound 29]	–	100 to 1000	100 to 1000
Cc1cccc(-c2nc(CNCc3ccccc3-c3cccc(CNC(=O)OC(C)(C)C)c3)[nH]c2-c2ccc3ncnn3c2)n1 [Compound 30]	–	100 to 1000	100 to 1000
Cc1cccc(-c2nc(CNCc3ccccc3-c3ccc(CNC(=O)OC(C)(C)C)cc3)[nH]c2-c2ccc3ncnn3c2)n1 [Compound 31]	–	100 to 1000	100 to 1000
Cc1cccc(-c2nc(CNCc3ccccc3-c3ccccc3CN)[nH]c2-c2ccc3ncnn3c2)n1 [Compound 32]	–	100 to 1000	100 to 1000
Cc1cccc(-c2nc(CNCc3ccccc3-c3cccc(CN)c3)[nH]c2-c2ccc3ncnn3c2)n1 [Compound 33]	–	100 to 1000	100 to 1000
Cc1cccc(-c2nc(CNCc3ccccc3-c3ccc(CN)cc3)[nH]c2-c2ccc3ncnn3c2)n1 [Compound 34]	–	100 to 1000	100 to 1000
Cc1cccc(-c2nc(CNCc3ccccc3-c3ccc(F)cc3)[nH]c2-c2ccc3ncnn3c2)n1 [Compound 35]	–	0.1 to 10	0.1 to 50
Cc1cccc(-c2nc(CNCc3ccccc3-c3ccc(F)c(F)c3)[nH]c2-c2ccc3ncnn3c2)n1 [Compound 36]	–	10 to 100	50 to 100
Cc1cccc(-c2nc(CNCc3ccccc3-c3cccc(F)c3)[nH]c2-c2ccc3ncnn3c2)n1 [Compound 37]	–	10 to 100	50 to 100
